Results as given in ChEMBL document CHEMBL1201862, “PubChem BioAssay data set” (2004).
Active and inactive are the calls of the source.

Tests used:
[1] = cells; type: functional, cell-based
[2] = cells; type: functional, cell-based; remark: listed apart in the source
[3] = tested on: Streptococcus; assay: Group A Streptococcus viability loss, dose response, counter-screen for streptokinase expression inhibitor project, luminescence, BacTiterGlo (AID 1915); type: functional, organism-based;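 further: potency for reduction of bacterial viability or growth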
[4] = biological target: Nonstructural protein 1 (Influenza A virus, UniProt Q194T2); type: functional, Influenza A virus (A/California/07/2009(H1N1))
Sequence of Nonstructural protein 1 (Q194T2 whole entry): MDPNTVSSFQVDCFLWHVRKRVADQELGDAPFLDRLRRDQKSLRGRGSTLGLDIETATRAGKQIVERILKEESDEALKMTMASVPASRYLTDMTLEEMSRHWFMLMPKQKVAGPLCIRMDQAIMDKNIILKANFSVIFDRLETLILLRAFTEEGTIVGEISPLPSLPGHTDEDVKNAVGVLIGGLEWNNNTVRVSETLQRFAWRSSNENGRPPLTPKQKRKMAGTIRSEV

[5] = tested on: Streptococcus sp. 'group A'; assay: growth inhibition of control SK(-) GAS strain, dose response, counter-screen for streptokinase expression inhibitor project, luminescence, kanamycin, BacTiterGlo, confirmation (AID 1900); type: functional, organism-based
[6] = cytotoxicity toward NIH3T3 fibroblasts, dose response, counter-screen, cell-based, ATP luminescence, mouse fibroblasts (AID 2010); type: functional;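 further: cells exposed to compound for about 90 hours before reading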
[7] = biological target: T1, Probable nicotinate-nucleotide adenylyltransferase (Staphylococcus aureus (strain N315), UniProt P65502); type: functional, Staphylococcus aureus subsp. aureus N315; settings: read-out: IC50_Mean;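 on IC50 Mean: confirmatory dose-response retesting of NadD inhibitor hits first found in an ultra-high-throughput screen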
T1 sequence (P65502 whole entry): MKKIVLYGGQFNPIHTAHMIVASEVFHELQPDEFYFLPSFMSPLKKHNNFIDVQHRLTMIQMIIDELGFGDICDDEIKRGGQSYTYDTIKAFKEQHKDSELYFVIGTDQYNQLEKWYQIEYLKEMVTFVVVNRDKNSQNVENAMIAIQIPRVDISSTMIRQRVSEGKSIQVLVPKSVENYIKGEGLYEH

[8] = inhibitors of intracellular T. cruzi replication, confirmation, NIH3T3 host cells, beta-gal luminescence (AID 2044); type: functional, cell-based;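 further: intracellular parasites grown in NIH/3T3 mouse fibroblasts as host cells; luminescent beta-galactosidase reporter signal from transgenic T. cruzi replicating inside host cells; inhibitors lower the luminescence signal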
[9] = tested on: INS1; assay: beta cell apoptosis inhibitors, cytokine rescue, dose response, luminescence, retest (AID 449756); type: functional, cell-based; settings: Rattus norvegicus;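 further: cell death triggered by IL-1 beta plus TNF-alpha plus IFN-gamma mixture; protective hits raise ATP signal compared with cytokine alone wells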
[10] = biological target: T2, Streptokinase A (Streptococcus pyogenes serotype M1, UniProt P10520); assay: S. pyogenes streptokinase expression inhibitors, potency, dose response, plasminogen activation absorbance, OD405 (AID 1914); type: functional, Streptococcus pyogenes M1 GAS;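 further: secreted streptokinase activity via plasminogen activation per viability signal from cell pellet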
T2 sequence (P10520 whole entry): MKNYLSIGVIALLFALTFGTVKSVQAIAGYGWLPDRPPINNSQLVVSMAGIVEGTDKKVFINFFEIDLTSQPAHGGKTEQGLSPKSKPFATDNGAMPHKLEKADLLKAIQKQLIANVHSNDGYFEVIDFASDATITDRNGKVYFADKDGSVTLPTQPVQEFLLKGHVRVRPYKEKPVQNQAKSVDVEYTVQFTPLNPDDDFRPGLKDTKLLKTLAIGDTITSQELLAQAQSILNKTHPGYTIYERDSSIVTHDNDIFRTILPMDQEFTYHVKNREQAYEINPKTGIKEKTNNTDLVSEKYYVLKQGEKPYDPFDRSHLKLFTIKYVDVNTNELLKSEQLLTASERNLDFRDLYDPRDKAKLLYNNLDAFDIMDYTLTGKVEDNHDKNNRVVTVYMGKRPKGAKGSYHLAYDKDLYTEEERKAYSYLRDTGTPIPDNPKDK

[11] = biological target: T1, Probable nicotinate-nucleotide adenylyltransferase; type: functional, Staphylococcus aureus subsp. aureus N315
[12] = A Cell Based Secondary Assay To Explore Cytotoxicity of Compounds that Sensitize Mycobacterium Tuberculosis to Beta-Lactam Antibiotics.; type: functional
[13] = biological target: T3, Carboxy-terminal domain RNA polymerase II polypeptide A small phosphatase 1 (Homo sapiens, UniProt Q9GZU7); assay: inhibitors of CTDSP1, concentration-response testing, biochemical assay, absorbance-based, actives from ultra-high-throughput screening (AID 540297); type: functional
T3 sequence (Q9GZU7 whole entry): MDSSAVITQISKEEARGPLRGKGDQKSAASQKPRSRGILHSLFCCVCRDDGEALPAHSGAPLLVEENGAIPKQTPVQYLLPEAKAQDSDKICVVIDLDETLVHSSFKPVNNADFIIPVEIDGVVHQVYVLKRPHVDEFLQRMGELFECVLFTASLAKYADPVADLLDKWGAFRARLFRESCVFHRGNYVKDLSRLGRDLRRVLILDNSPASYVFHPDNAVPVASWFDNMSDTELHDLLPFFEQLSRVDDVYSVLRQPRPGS

[14] = biological target: T4, Estrogen receptor (Homo sapiens, UniProt P03372);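 further: potency for inhibiting coactivator peptide recruitment to the receptor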
T4 sequence (P03372 whole entry): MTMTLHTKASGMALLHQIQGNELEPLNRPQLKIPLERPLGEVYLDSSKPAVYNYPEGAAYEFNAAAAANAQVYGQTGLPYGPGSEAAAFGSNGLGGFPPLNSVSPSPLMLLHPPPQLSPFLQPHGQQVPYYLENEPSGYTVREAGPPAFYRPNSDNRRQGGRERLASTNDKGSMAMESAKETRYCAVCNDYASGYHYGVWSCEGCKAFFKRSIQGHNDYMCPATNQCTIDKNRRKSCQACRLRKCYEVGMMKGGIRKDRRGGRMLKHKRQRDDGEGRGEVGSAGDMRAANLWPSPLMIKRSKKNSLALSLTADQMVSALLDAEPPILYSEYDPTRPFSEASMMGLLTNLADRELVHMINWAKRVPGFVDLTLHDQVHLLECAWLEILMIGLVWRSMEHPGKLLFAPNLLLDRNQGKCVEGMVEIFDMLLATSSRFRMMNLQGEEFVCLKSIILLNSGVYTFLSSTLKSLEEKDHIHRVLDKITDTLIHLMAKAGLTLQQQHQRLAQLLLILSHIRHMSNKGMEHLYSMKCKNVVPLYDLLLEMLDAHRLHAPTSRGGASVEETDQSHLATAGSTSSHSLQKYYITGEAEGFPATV

[15] = biological target: T5, Estrogen receptor beta (Homo sapiens, UniProt Q92731); assay: ERβ–SRC-3 coactivator interaction inhibitors, confirmation, orthogonal assay, biochemical, ELISA, streptavidin-HRP readout (AID 1060)
T5 sequence (Q92731 whole entry): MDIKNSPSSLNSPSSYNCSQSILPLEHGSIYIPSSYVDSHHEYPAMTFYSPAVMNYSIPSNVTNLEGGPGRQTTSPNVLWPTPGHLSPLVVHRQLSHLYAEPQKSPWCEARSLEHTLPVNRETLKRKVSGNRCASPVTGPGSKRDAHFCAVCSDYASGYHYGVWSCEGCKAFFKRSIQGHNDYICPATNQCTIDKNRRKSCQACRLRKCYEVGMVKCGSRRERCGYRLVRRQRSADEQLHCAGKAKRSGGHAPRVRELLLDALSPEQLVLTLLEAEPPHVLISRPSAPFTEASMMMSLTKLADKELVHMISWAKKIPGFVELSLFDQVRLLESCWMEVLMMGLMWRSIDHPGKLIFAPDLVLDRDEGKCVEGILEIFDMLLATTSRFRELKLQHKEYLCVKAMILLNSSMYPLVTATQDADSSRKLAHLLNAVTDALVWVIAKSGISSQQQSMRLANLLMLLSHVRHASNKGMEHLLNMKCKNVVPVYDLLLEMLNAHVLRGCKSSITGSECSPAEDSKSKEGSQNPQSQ

[16] = biological target: T5, Estrogen receptor beta
[17] = cells
[18] = biological target: T6, Microphthalmia-associated transcription factor (Homo sapiens, UniProt O75030); assay: TRPM1 promoter luciferase signal decrease, dose response, MITF inhibitor project, cell-based, SK-MEL-5, cherry-picked, set 3 (AID 493073); type: functional
T6 sequence (O75030 whole entry): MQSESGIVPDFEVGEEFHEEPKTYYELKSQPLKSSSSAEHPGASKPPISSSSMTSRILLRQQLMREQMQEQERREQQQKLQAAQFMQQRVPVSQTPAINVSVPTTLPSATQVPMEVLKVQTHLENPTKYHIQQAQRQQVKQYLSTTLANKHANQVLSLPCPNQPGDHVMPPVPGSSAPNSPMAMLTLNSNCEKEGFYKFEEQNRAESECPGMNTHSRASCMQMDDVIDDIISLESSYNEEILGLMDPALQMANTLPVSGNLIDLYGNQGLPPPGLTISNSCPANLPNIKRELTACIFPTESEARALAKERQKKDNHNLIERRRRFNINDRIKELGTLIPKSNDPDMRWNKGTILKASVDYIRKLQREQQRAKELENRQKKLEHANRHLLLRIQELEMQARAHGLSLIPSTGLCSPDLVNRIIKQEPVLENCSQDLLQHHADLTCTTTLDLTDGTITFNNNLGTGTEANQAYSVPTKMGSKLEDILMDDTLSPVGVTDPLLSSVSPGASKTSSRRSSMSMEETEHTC

[19] = HepG2 cell cytotoxicity, dose response, cytotoxicity control, ATP luminescence, cherry-pick, activator set 2 (AID 1053143); type: functional, cell-based
[20] = biological target: T7, Fatty acid synthase (Homo sapiens, UniProt P49327); assay: FAS thioesterase domain inhibitors, dose response, biochemical, kinetic fluorescence intensity (AID 624326); type: functional;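 further: rate of fluorescence rise from hydrolysis of a fluorogenic O-methyl fluorescein ester substrate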
T7 sequence (P49327 whole entry, the tested form may be a part): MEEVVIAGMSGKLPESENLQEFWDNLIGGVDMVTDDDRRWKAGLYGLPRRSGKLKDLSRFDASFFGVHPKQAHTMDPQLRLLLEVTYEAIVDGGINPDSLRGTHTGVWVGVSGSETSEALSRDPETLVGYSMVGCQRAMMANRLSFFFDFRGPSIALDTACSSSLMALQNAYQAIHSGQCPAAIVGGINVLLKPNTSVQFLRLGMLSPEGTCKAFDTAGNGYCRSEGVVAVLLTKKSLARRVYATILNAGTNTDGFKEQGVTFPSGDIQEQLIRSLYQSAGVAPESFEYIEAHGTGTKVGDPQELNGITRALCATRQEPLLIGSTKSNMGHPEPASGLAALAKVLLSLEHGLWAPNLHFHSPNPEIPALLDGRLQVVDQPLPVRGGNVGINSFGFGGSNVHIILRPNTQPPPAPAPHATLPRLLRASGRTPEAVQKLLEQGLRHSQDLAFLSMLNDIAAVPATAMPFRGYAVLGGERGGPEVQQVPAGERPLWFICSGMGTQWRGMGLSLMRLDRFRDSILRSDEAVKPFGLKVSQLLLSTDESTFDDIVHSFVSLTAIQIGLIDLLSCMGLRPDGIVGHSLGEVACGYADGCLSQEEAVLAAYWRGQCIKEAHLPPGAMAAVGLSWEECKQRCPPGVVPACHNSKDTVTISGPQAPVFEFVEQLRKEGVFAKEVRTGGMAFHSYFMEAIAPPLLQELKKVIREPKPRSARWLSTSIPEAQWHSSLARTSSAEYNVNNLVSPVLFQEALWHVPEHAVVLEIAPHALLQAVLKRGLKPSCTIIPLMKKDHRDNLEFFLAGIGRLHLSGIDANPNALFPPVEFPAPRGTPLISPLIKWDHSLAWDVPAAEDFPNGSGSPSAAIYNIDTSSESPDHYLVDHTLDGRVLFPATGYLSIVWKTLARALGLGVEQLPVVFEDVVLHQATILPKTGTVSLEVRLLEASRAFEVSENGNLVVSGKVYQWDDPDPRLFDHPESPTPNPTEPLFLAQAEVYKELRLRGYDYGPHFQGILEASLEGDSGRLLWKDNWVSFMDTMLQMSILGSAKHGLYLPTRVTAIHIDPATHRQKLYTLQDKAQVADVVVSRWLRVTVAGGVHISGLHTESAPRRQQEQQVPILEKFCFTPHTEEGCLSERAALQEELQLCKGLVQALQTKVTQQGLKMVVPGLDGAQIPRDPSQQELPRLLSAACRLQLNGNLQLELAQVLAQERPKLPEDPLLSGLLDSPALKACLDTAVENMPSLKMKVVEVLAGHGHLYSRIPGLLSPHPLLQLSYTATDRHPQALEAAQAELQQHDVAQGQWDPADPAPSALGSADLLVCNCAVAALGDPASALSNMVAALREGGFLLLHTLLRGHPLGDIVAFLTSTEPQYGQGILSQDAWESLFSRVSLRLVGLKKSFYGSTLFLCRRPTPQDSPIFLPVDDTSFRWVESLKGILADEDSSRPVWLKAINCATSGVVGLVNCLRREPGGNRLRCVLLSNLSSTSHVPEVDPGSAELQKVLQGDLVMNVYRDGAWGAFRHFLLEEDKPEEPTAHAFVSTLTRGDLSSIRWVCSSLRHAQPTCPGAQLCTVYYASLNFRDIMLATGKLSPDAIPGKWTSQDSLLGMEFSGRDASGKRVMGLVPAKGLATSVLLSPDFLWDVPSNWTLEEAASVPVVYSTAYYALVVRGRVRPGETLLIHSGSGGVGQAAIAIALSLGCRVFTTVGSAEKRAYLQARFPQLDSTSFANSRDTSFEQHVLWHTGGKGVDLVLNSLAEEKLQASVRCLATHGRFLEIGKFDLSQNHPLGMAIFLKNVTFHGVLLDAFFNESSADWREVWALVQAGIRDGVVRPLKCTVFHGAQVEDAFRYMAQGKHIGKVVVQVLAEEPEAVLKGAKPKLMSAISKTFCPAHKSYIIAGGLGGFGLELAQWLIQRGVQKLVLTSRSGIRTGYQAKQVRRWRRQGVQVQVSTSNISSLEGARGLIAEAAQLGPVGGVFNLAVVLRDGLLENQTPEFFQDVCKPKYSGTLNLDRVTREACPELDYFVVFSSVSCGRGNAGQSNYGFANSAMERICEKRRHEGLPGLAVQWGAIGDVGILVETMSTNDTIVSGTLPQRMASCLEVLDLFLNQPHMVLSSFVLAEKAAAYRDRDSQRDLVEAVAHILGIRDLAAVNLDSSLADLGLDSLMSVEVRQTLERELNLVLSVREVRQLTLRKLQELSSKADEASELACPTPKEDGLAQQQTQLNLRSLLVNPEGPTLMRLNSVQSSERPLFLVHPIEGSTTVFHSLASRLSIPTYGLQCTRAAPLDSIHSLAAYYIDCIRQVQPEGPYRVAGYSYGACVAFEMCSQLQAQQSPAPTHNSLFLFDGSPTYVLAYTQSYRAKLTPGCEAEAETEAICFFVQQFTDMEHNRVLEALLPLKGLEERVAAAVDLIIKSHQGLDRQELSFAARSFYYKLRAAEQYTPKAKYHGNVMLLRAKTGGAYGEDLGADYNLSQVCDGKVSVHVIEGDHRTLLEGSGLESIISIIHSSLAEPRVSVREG

[21] = HEp-2 cell cytotoxicity, dose response, cytotoxicity control for RSV inhibitor project, HTS (AID 2410); type: functional; settings: human respiratory syncytial virus
[22] = biological target: T7, Fatty acid synthase; assay: FAS thioesterase domain inhibitors, dose response, biochemical, endpoint fluorescence intensity, uHTS hits (AID 624327); type: functional;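 further: fluorescence from hydrolysis of an O-methyl fluorescein acyl ester substrate by the enzyme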
[23] = biological target: Prothrombin (Bos taurus, UniProt P00735); assay: thrombin inhibition, dose response, biochemical, fluorescence polarization, uHTS hits (AID 602369); type: functional
[24] = biological target: 26S proteasome non-ATPase regulatory subunit 14 (Homo sapiens, UniProt O00487); assay: inhibition of proteasome subunit RPN11 – biochemical, fluorescence polarization, uHTS hits, confirmation (AID 602368); type: functional
Sequence of 26S proteasome non-ATPase regulatory subunit 14 (O00487 whole entry): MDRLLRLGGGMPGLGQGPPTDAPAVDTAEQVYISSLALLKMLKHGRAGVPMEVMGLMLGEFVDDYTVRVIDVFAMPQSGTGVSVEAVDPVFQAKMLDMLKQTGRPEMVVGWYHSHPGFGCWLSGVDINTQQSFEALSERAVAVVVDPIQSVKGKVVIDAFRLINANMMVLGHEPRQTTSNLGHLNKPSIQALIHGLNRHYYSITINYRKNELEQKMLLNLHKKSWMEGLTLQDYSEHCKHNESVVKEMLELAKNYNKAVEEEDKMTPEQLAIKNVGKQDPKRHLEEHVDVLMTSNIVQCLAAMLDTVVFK

[25] = biological target: 72 kDa type IV collagenase (Homo sapiens, UniProt P08253); assay: Dose Response validation of uHTS RPN11 inhibitor hits using a MMP-2 Fluorescence assay.; type: functional
Sequence of 72 kDa type IV collagenase (P08253 whole entry): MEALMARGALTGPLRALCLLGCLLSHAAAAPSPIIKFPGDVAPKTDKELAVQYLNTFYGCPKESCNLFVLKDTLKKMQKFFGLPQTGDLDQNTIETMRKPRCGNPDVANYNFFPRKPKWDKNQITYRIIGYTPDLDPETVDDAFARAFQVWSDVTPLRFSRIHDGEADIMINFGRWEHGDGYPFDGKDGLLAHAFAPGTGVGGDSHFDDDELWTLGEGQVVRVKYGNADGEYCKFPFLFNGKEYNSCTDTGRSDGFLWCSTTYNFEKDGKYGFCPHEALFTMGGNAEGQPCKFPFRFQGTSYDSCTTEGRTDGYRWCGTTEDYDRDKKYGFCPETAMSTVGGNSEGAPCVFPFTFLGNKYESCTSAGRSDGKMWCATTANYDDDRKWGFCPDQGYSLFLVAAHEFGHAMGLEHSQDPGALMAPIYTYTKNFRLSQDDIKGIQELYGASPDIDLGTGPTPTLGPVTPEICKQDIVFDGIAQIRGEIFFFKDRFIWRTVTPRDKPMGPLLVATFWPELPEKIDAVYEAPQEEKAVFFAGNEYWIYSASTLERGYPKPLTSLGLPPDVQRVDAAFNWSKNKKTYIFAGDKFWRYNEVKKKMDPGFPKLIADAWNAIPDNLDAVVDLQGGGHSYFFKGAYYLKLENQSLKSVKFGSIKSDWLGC

[26] = biological target: T8, Caspase-6 (Homo sapiens, UniProt P55212); assay: human caspase-6 inhibitors, dose response, biochemical, VEID-R110 fluorescence, cherry-pick (AID 720632)
T8 sequence (P55212 whole entry): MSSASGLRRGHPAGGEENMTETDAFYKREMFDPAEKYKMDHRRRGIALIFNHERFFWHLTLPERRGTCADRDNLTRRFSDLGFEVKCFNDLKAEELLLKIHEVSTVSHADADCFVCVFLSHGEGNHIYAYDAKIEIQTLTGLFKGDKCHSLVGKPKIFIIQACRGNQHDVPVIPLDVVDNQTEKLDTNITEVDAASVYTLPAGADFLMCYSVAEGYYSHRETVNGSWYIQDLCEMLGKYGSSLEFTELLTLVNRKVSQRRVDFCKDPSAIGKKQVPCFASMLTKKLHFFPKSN

For `Cc1cccc2sc(NNC(=O)c3ccc(S(=O)(=O)N4CCc5ccccc5C4)cc3)nc12`, which EC50 [1] is on record?
The EC50 was > 350 µM (not active).

What about the EC50 [2] of the same molecule?
The EC50 was 12 µM (active).

And the EC50 [3]?
Its EC50 is 33.6 µM (active).

And the IC50 [4]?
The IC50 was > 100 µM (active).

What about the EC50 [5] of the same molecule?
The EC50 was 2.4 µM (active).

And the EC50 [6]?
The EC50 was 2.62 µM (active).

And the IC50 [7]?
Its IC50 is 56.7 µM (active).

And the EC50 [8]?
Its EC50 is 733 nM (active).

What about the AC50 [9] of the same molecule?
The AC50 was 1.8 µM (active).

And the EC50 [10]?
The EC50 was > 150 µM (not active).

And the IC50 [11]?
The IC50 was 13.8 µM (active).

Which EC50 [3] does the source give for `CNC(=Nc1cc(Cl)ccc1Cl)SC1CC(=O)N(c2ccc(C(=O)OC)cc2)C1=O` (stereo not given) here?
Its EC50 is 12.5 µM (active).

What about the EC50 [5] of the same molecule?
The EC50 was 10.3 µM (active).

And the CC50 [12]?
The CC50 was > 40 µM (active).

Which results are given for `O=C(c1cc2ncc(Br)cn2n1)N1CCN(C(=O)c2ccco2)CC1`?
IC50 [13]: 16.5 µM (active); IC50 [14]: 17.9 µM (active); IC50 [15]: 349 nM (not active); IC50 [16]: 2.73 µM (active)

Which results are given for `Clc1ccc(-c2c[n+](Cc3cccc(Cl)c3)c3n2CCC3)cc1`?
EC50 [17]: 9 nM (active); EC50 [6]: > 60 µM (not active); EC50 [8]: < 100 nM (active); AC50 [18]: 8.77 µM (active)

Which CC50 [12] does the source give for `N#Cc1ccc(C23CC4(C2)[C@H](CN(Cc2cccnc2)[C@@H]4c2ccccc2)C3c2ccccc2)cc1` (stereo not given in full) here?
The CC50 was > 40 µM (active).

For `Brc1c(CSc2nc3ccccc3o2)nc2ncccn12`, which AC50 [19] is on record?
The AC50 was > 52 µM (inactive).

Which results are given for `Cc1ccc2c(C)nc(N=C(N)NS(=O)(=O)c3ccc([N+](=O)[O-])cc3)nc2c1`?
EC50 [17]: 273 nM (active); EC50 [6]: > 60 µM (not active); IC50 [20]: 8.96 µM (active); EC50 [8]: < 100 nM (active); CC50 [21]: 45.4 µM (active); IC50 [22]: 10.9 µM (active)

For `Cc1cccc(NC(=O)CNC(=O)CCc2nc3sc4c(c3c(=O)[nH]2)CCCC4)c1C`, which IC50 [23] is on record?
Its IC50 is 43.9 µM (active).

What about the IC50 [13] of the same molecule?
Its IC50 is 2.66 µM (active).

What about the IC50 [24] of the same molecule?
Its IC50 is 7.12 µM (active).

What about the IC50 [25] of the same molecule?
The IC50 was > 100 µM (inactive).

And the AC50 [26]?
The AC50 was 7.7 µM (active).
